{"source": "patent US20090253206A1", "about": "“NUCLEAR TRANSPORT AGENT AND METHOD FOR PRODUCING SAID AGENT” (LONZA COLOGNE AG, priority 2006, published 2009)", "key": {"pmaxGFP plasmid DNA [1]": {"tested_on": "pmaxGFP plasmid DNA", "test": "Electrophoretic mobility shift assay in agarose gel, NLS peptides in water (FIG. 1)", "assay_type": "binding", "conditions": "1 μg DNA with μg amounts of peptide in water, 20 μl, 20° C., 30 min; 0.6% agarose gel", "experimental": "1 μg DNA was incubated with peptide (μg amounts as indicated in the figure) in water in a total volume of 20 μl at 20° C. for 30 min. After that loading dye was added, each sample filled into a slot of a 0.6% agarose gel (Tris-acetate/EDTA as running buffer, pH 8.5). Electrophoresis was run at 90V for 120 min. P=1 μg plasmid DNA without peptide. M=kb marker (bands indicating 1.5, 2, 3, 4, 5, and 6 kb). The gel was stained with Ethidiumbromide for 10 min, then documented using a BioRad Gel-Doc System.\nDNA interacting unspecifically with peptides through positively charged amino acids may mask positively charged nuclear localisation sequences (NLS) and interfere with their function in nuclear transport.\nPeptides were synthesized by F-moc-Chemistry and HPLC-purified to 95% purity. The carboxyl-group at the C-terminus was amidated and the N-terminal amino-group was actylated, in order to eliminate additional charges.\nDNA was pmaxGFP plasmid DNA ([…] size).\n(§1) The NLS on the NLS-1 peptide may be masked and altered in its capacity to mediate nuclear translocation, whereas all other peptides are still functioning in nuclear import."}, "pmaxGFP plasmid DNA [2]": {"tested_on": "pmaxGFP plasmid DNA", "test": "Electrophoretic mobility shift assay in agarose gel, peptides with different positive net charges (FIG. 2)", "assay_type": "binding", "conditions": "1 μg DNA with 1 nM peptide in water, 20 μl, 20° C., 30 min; 0.6% agarose gel", "experimental": "1 μg DNA was incubated with 1 nM peptide in water in a total volume of 20 μl at 20° C. for 30 min. After that loading dye was added, each sample filled into a slot of a 0.6% agarose gel (Tris-acetate/EDTA as running buffer, pH 8.5). Electrophoresis was run at 90V for 120 min. P=1 μg plasmid DNA without peptide. M=kb marker (bands indicating 1.5, 2, 3, 4, 5, and 6 kb). The gel was stained with Ethidiumbromide for 10 min, then documented using a BioRad Gel-Doc System.\nDNA interacting unspecifically with peptides through positively charged amino acids may mask positively charged nuclear localisation sequences (NLS) and interfere with their function in nuclear transport. […] Peptides were designed with different positive net charges, 5+, 4+, 3+, 2+, 0±, by exchanging neutral amino acids for acidic ones or vice versa acidic for neutral amino acids\n(§2) Peptides were synthesized by F-moc-chemistry and HPLC-purified to 95% purity. The carboxyl-group at the C-terminus was amidated and the N-terminal amino-group was actylated, in order to eliminate additional charges.\nas §1"}, "pmaxGFP plasmid DNA [3]": {"tested_on": "pmaxGFP plasmid DNA", "test": "DNA-band shift of plasmid DNA with positively charged peptides and peptide-NLS in Opti-MEM (FIGS. 3 and 4)", "assay_type": "binding", "conditions": "90 ng or 135 ng DNA, various peptide amounts in Opti-MEM, 20° C., 30 min; comparison between peptides", "experimental": "Plasmid DNA (90 ng per sample) was incubated with different amounts (numbers above each lane indicate pico-mole amounts per sample) of positively charged peptides (see list of peptide sequences for details) in Opti-MEM as described below.\nSeveral positively charged peptides, as well as positively charged peptides bearing a positively charged NLS (NLS1) or a neutral NLS (NLS2) were tested for their ability to complex DNA and form higher aggregates, visible as shifts of the electrophoretic mobility of the DNA.\nas §2, with “charges. U represents the spacer molecule 8-amino-3,6-dioxaoctanoic acid (UUU (U3) represents a trimer of U):” for “charges.”\nLyophilized peptides, provided by supplier, were dissolved in distilled water to 0.1 mM. DNA was pmaxGFP plasmid DNA, 3.7 kb size (amaxa AG, Cologne), dissolved in water at 1 mg/ml. The plasmid encodes a green fluorescent protein (GFP).\nFor DNA-band shift experiments 90 ng or 135 ng DNA, resp., were incubated with various amounts of peptide (indicated in the figure) in Opti-MEM (Invitrogen) in a total volume of 60 μl or 90 μl, resp., at 20° C. for 30 min. Loading dye was added before each sample was filled into a slot of a 0.6% agarose gel (40 mM Tris-acetate/1 mM EDTA as running buffer, pH 8.0). Electrophoresis was run at 90V for 120 min.\nP=90 ng plasmid DNA without peptide M=kb marker (bands indicating 0.5, 1, 1.5, 2, 3, 4, 5, 6, 8, and 10 kb).\nThe gel was stained with Ethidiumbromide for 10 min, then documented using a BioRad Gel-Doc System.\nWith increasing amounts of peptide the DNA band is gradually shifting, indicating decreased electrophoretic mobility due to higher molecular size of the peptide-DNA complexes and due to decrease in negative charge of the DNA compensated by the positively charged peptides. As the concentration of the peptide further increases, the molecular weight of the complexes increases as well. The complexes are therefore hardly moving into the gel, the bands appear right below the loading slot. The plasmid DNA is represented by two bands in the gel, one dominant band of super-coiled slightly above 2 kb, and a weaker band between 3 and 4 kb showing the relaxed plasmid DNA."}, "[4]": {"tested_on": "Human Umbilical Vein Endothelial Cells (HUVEC)", "test": "Transfection of HUVEC with ExGen500 and peptide-NLS, GFP expression by flow cytometry", "assay_type": "cell-based", "conditions": "for transfection efficiency (percentage of GFP-positive cells of all viable cells): ExGen500, 1.5 μg DNA, 24 hours post transfection; for change of transfection efficiency (in words): FIG. 5 and FIG. 6", "experimental": "(§3) Cells were grown and seeded as described below. FACS data of duplicate samples are shown.\nCells were grown and seeded as described below. Mean values of the duplicate samples are shown.\n(§4) Human Umbilical Vein Endothelial Cells (HUVEC, from LONZA) were grown in EGM-2 medium (Bullet Kit, LONZA) and seeded in 12-well plates one day before transfection at a density of 1.2×10^5 cells per well in 1 ml EGM-2 medium (LONZA).\n(§5) Transfection reagents were ExGen500 (Fermentas) and HiFect (amaxa) used according to manufacturer's protocols. Plasmid-DNA (1.5 μg), coding for green fluorescent protein (pmaxGFP, amaxa) was complexed with peptides (amounts as indicated in the figures) for 30 min at room temperature prior to mixing with transfection reagent.\nFor transfection with ExGen500 complex formation was done in 30 μl 150 mM NaCl solution. These preformed DNA-peptide complexes were added to transfection reagent (diluted in Opti-MEM or 150 mM NaCl according to manufacturer's protocols) and incubated.\n(§6) Complete transfection samples were added to HUVEC in Opti-MEM, incubated for 1 h at 37° C./5% CO2 in a humidified incubator. Medium was aspirated, cells washed with PBS twice. Fresh medium was added, and cells were incubated for another 23 h, then prepared for flow cytometry. To differentiated PC12 transfection samples were added in Opti-MEM, incubated for 1 h. After supernatant was removed fresh medium was added. Expression of maxGFP was measured by flow cytometry and expressed as transfection efficiency (percentage of GFP-positive cells of all viable cells) and X-mean (mean fluorescent intensity of the cells) 24 h after transfection (HUVEC), 48 h or 72 h after transfection in the case of PC12."}, "[5]": {"tested_on": "neuronally differentiated PC12 cells", "test": "Transfection of neuronally differentiated PC12 cells with HiFect and peptide-NLS, GFP expression by flow cytometry", "assay_type": "cell-based", "conditions": "differentiated PC12, HiFect, 1 μg DNA", "experimental": "(§7) Cells were grown and seeded as described below. FACS data of mean values of the duplicate samples are shown.\nPC12 cells (from ATCC) were grown in F-12K medium (ATCC) with 15% horse serum (Gibco) and 2.5% foetal calf serum (ATCC). Cells were seeded in 12-well plates; 5×10^4 coated with collagen (from rat tail (SIGMA), 60 μg per well, dissolved in 0.005% acetic acid/30% ethanol at 60 μg per ml). After one day of culture nerve growth factor (NGF-β from SIGMA, 100 ng/ml final concentration) was added to differentiate neuronal cells. 7 days after start of differentiation, cells were used for transfection.\nTransfection reagents were ExGen500 (Fermentas) and HiFect (amaxa) used according to manufacturer's protocols. […]\n(§8) For transfection with HiFect complex formation of DNA and peptide was done in 250 μl Opti-MEM (Invitrogen) for each sample.\nas §6, with “To differentiated PC12 transfection samples were added in Opti-MEM, incubated for 1 h. After supernatant was removed fresh medium was added.” left out, “PC12. […]” for “PC12.”"}, "[6]": {"tested_on": "Human Umbilical Vein Endothelial Cells (HUVEC)", "test": "Transfection of HUVEC with HiFect and peptide-NLS, GFP expression by flow cytometry", "assay_type": "cell-based", "conditions": "HiFect, 1.5 μg DNA, 24 hours post transfection, FIG. 8 and FIG. 9", "experimental": "as §3, §7, §4, §5, §8\nas §6, with “Fresh medium was added, and cells were incubated for another 23 h, then prepared for flow cytometry. To differentiated PC12 transfection samples were added in Opti-MEM, incubated for 1 h. After supernatant was removed fresh medium was added.” left out"}}, "note": "Ends that are not written are not given here.", "data": [{"substance": "GSGSPKKKRKVGSG (Ac-GSGSPKKKRKVGSG-NH2) [NLS-1, SV40 large T-antigen core NLS with glycine and serine flanks]", "values": [{"measurement": "alteration of the electrophoretic mobility of DNA (binding to DNA, aggregates)", "setting": "pmaxGFP plasmid DNA [1]", "result": "does bind to DNA and forms aggregates"}, {"measurement": "alteration of the electrophoretic mobility of DNA (binding to DNA, aggregates)", "setting": "pmaxGFP plasmid DNA [2]", "result": "do bind to DNA and form aggregates"}]}, {"substance": "KKKKK KKKKK KKKKK K-UUU (Ac-KKKKKKKKKKKKKKKK; not fully specified (C-terminus); printed as KKKKK KKKKK KKKKK K-UUU) [K16U3]", "values": [{"measurement": "peptide amount needed to form a high molecular weight complex / total band shift", "setting": "pmaxGFP plasmid DNA [3]", "result": "form a high molecular weight complex (i.e. no migration into the gel) at the same concentrations"}, {"measurement": "transfection efficiency (percentage of GFP-positive cells of all viable cells)", "setting": "[4]; FIG. 5", "result": 49.5, "unit": "%"}, {"measurement": "change of transfection efficiency (in words)", "setting": "[4]; ExGen500, 24 h", "result": "decreasing transfection efficiency"}]}, {"substance": "KKKKK KKKKK KKKKK K-UUU-EEDTP PKKKR KVED [K16U3-NLS2]", "values": [{"measurement": "maximum increase in transfection efficiency, factor", "setting": "[5]; 72 hours post transfection, compared to HiFect without peptide, FIG. 10", "result": 2.6}, {"measurement": "transfection efficiency (percentage of GFP-positive cells of all viable cells)", "setting": "[4]; FIG. 5", "result": 69, "unit": "%"}, {"measurement": "increase of transfection efficiency, factor", "setting": "[4]; ExGen500, 24 h, compared to peptide K16U3 without NLS, FIG. 5", "result": 1.4}]}, {"substance": "KKKKK KKKKK KKKKK K-UUU-GSGSP KKKRK VGSG [K16U3-NLS1]", "values": [{"measurement": "change of transfection efficiency (in words)", "setting": "[4]; ExGen500, 24 h", "result": "increase of transfection efficiency is less distinctive"}]}, {"substance": "KKKKK KKKKK KKKKK KGGGS (Ac-KKKKKKKKKKKKKKKKGGGS-NH2) [K16GGGS]", "values": [{"measurement": "peptide amount needed to form a high molecular weight complex / total band shift", "setting": "pmaxGFP plasmid DNA [3]", "result": "form a high molecular weight complex (i.e. no migration into the gel) at the same concentrations"}]}, {"substance": "KKKKKKKKKKKKKKKKKKKKKKKKKGGGS (KKKKKKKKKKKKKKKKKKKKKKKKKGGGS; DNA-anchoring peptide) [K25GGGS]", "values": [{"measurement": "peptide amount needed to form a high molecular weight complex / total band shift", "setting": "pmaxGFP plasmid DNA [3]", "result": "cause a total shift to decreased electrophoretic mobility at lower peptide amounts than K16GGGS and K16U3"}]}, {"substance": "RKKRKRKKRKRKKRKRKKRKGGGS (Ac-RKKRKRKKRKRKKRKRKKRKGGGS-NH2) [RKK20GGGS]", "values": [{"measurement": "peptide amount needed to form a high molecular weight complex / total band shift", "setting": "pmaxGFP plasmid DNA [3]", "result": "cause a total shift to decreased electrophoretic mobility at lower peptide amounts than K16GGGS and K16U3"}]}, {"substance": "RKKRK RKKRK RKKRK RKKRK-PEG27- EEDTP PKKKR KVED [RKK20-PEG27-NLS2]", "values": [{"measurement": "increase in transfection efficiency, factor", "setting": "[6]", "result": 1.5}, {"measurement": "maximum increase in transfection efficiency, factor", "setting": "[5]; compared to peptide RKK20 without NLS, 200 pmol resp., FIG. 11", "result": 2.8}, {"measurement": "peptide amount needed to form a high molecular weight complex / total band shift", "setting": "pmaxGFP plasmid DNA [3]", "result": "behaves similarly"}, {"measurement": "increase in transfection efficiency, factor", "setting": "[4]; ExGen500, 24 h, FIG. 7, comparator not stated", "result": 1.2}]}, {"substance": "RKKRK RKKRK RKKRK RKKRK-UUU-EEDTP PKKKR KVED [RKK20U3-NLS2]", "values": [{"measurement": "increase in transfection efficiency, factor", "setting": "[6]", "result": 2}, {"measurement": "peptide amount needed to form a high molecular weight complex / total band shift", "setting": "pmaxGFP plasmid DNA [3]", "result": "seems to increase the peptide amount necessary for a total band shift"}, {"measurement": "increase in transfection efficiency, factor", "setting": "[4]; ExGen500, 24 h, compared to DNA transfected without any peptide or complexed with RKK20GGGS peptide without NLS, FIG. 6", "result": 1.2}, {"measurement": "peptide amount sufficient for increase in transfection efficiency (in words)", "setting": "[4]; ExGen500, FIG. 5 versus FIG. 6", "result": "lower amount of RKKU3-NLS2 than of K16U3-NLS2 is sufficient"}]}, {"substance": "RKKRK RKKRK RKKRK RKKRK-UUU-GSGSP KKKRK VGSG [RKK20U3-NLS1]", "values": [{"measurement": "peptide amount needed to form a high molecular weight complex / total band shift", "setting": "pmaxGFP plasmid DNA [3]", "result": "does not behave much differently to the RKK20GGGS peptide"}, {"measurement": "change of transfection efficiency (in words)", "setting": "[4]; ExGen500, 24 h", "result": "increase is higher for the NLS2-peptide than for the NLS1-bearing peptide"}]}]}
